Assay results: ChEMBL document CHEMBL3399933, “A combination of in silico and SAR studies to identify binding hot spots of Bcl-xL inhibitors” (Bioorg Med Chem, 2015)

Target: Bcl-2-like protein 1 (Homo sapiens, UniProt Q07817)
Assay: Inhibition of GST-tagged Bcl-xL (unknown origin) measured after 1 hr incubation by fluorescence polarization assay

Chain of Bcl-2-like protein 1 (Q07817 whole entry): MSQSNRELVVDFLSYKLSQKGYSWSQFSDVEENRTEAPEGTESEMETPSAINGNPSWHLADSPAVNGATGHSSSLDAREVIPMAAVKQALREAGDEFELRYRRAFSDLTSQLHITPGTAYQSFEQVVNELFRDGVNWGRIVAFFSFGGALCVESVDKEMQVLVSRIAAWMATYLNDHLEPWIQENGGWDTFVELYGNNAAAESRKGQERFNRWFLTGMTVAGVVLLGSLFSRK

CCCN(C(=O)N[C@@H](CSCC(C)C)C(=O)O)C(=O)c1cccc(C#Cc2ccc(F)cc2F)c1
IC50: 22 µM

Cc1c(C(=O)O)c(-c2cccc(N3CCN(c4ccc(NS(=O)(=O)c5ccc(NC(CCN(C)C)CSc6ccccc6)c([N+](=O)[O-])c5)cc4)CC3)c2)c(-c2ccc(Cl)cc2)n1C (centres undefined)
IC50: 0.006 µM

O=C(O)c1cccc(-c2ccc3c(c2)/C(=N/Nc2nc4ccccc4s2)CCC3)n1
IC50: 0.021 µM

CCCN(C(=O)N[C@@H](CSCc1ccc(Br)cc1)C(=O)O)C(=O)c1cccc(C#Cc2ccc(F)cc2F)c1
IC50: 13 µM

O=C(O)c1ccccc1C(=O)c1ccc(Sc2ccc(Cl)cc2)c([N+](=O)[O-])c1
Ki: 0.5 µM

CN(C)CC[C@H](CSc1ccccc1)Nc1ccc(S(=O)(=O)NC(=O)c2ccc(N3CCN(Cc4cccc(-c5ccccc5)c4)CC3)cc2)cc1[N+](=O)[O-]
IC50: 0.011 µM

CC(C)C(C(=O)O)N1C(=O)/C(=C/c2ccc(Br)cc2)SC1=S (centres undefined)
Ki: 2.4 µM

CN(C)CC[C@H](CSc1ccccc1)Nc1ccc(S(=O)(=O)Nc2ncnc3cc(N4CCN(Cc5ccccc5-c5ccc(Cl)cc5)CC4)ccc23)cc1[N+](=O)[O-]
IC50: 0.003 µM

Cc1cc2c(C(C)C)c(O)c(O)c(C=O)c2c(O)c1-c1c(C)cc2c(C(C)C)c(O)c(O)c(C=O)c2c1O [GOSSYPOL]
Ki: 1 µM
